Results from patent US20110306035A1, “Methods and Compositions for Detection of a Pathogen, Disease, Medical Condition, or Biomarker Thereof” (priority 2008, published 2011).
Several values for one entry are separate records, joined by “and”; a condition that tells them apart may be missing. Identical values can stand only once. Square brackets hold non-standard residues; d marks the D form. Peptide text beside a SMILES is read from it. * marks the point of attachment. Sta = CC(C)C[C@H](N)[C@@H](O)CC(=O)O; pNA = O=[N+]([O-])c1ccc(N*)cc1; Isovaleryl = CC(C)CC(=O)*; MeOSuc = COC(=O)CCC(=O)*

How the values were obtained:
[1] = biological target: T1, recombinant HRV 3C protease (Human rhinovirus 14, UniProt P03303); test: HRV 3C protease activity with inhibitors (Buffer+3C, PEP1); type: biochemical; details: 4 μM PEP1; 50 nM recombinant HRV 3C protease
T1 construct: Reactions were performed at 4 μM PEP1 and 50 nM recombinant HRV 3C protease
Procedure: (§1) All inhibitors were dissolved at 100×, aliquoted, stored and used according to the manufacturers' instructions. No freeze thaw cycles were imposed on the inhibitors. Prior to starting the assay by addition of substrate, 10 μl of the cocktail or individual inhibitor was incubated for 5 min with 90 μl of the sample/buffer+ HRV protease.
(§2) To test the effect of the inhibitors on protease activity (Buffer+3C) and on background noise present in a nasal wash specimen pool, reaction rates were compared with or without the inhibitors in question (Table 12). Reactions were performed at 4 μM PEP1 and 50 nM recombinant HRV 3C protease for 5 min under starting buffer environment. A nasal wash specimen pool of four HRV negative specimens by RT-PCR was used due to insufficient volume from an individual specimen and to reproduce equal conditions throughout the experiments.
(§3) Results with and without inhibitory cocktail and with cocktail+recombinant HRV 3C protease are shown for both the specimen pool (FIG. 21A) and human WBC at ˜1×10^6 cell/ml (FIG. 21B). […] Spiking of recombinant HRV 3C protease to reactions with the inhibitory cocktail induced specific HRV protease activities at normal rates. Reactions were performed with 4 μM PEP1 and 50 nM recombinant HRV 3C protease where indicated (by +3C). The data are representative of two independent repeats.

[2] = test system: non specific proteolytic activity of the nasal wash specimen; test: Background noise in nasal wash specimen pool (HRV assay, PEP1); type: biochemical; details: 4 μM PEP1; 5 min
Procedure: as §1, §2, §3

PSA = PSA (Homo sapiens, UniProt P07288); details: in the presence of 1.3M Na2SO4; cited from earlier work
[3] = biological target: T2, Recombinant protease from enterovirus strain Echo (Echovirus 30, UniProt Q9WN78); test: Enterovirus assay optimization with recombinant Echo protease (plates, tubes, buffer, Na2SO4, substrate concentration, diluent); type: biochemical; details: for enzymatic activity: 0.25 uM substrate; for Positive control, Average / Positive control: substrate stock diluted 1:8 in this diluent, 0.25 uM final; for Positive control: single repetition
T2 construct: Phosphoramidon was tested using the Echovirus 3C recombinant
Procedure: • Inhibitor Cocktail: Inhibitors cocktail I10 • Enzyme dilution buffer: −25 mM HEPES pH 7.5, 150 mM NaCl, 1 mM EDTA, 10% Glycerol, 0.5 mg/ml BSA, 1M Sucrose, 0.1% Sodium azid. • 2× reaction buffer, Buffer B: 50 mM HEPES, 10 mM EDTA, 10 mM EGTA, 1.2M Na2SO4, sodium azide 0.1%, pH 8.5 • Artificial CSF: NaCl 125 mM, KCl 2.5 mM, MgCl 1 mM, NaH2PO4 1.25 mM, CaCl2 2 mM, Glucose 2.5 mM, NaHCO3 25 mM, 0.1% Sodium azide, HEPES 25 mM, pH 7.45. • Enzyme: Recombinant protease from enterovirus strain “Echo” [dilution 1:18 • Substrate: Camb-2.3, 1 mM, Camb-2.4, 2 mM. (Different batches for the same Camb2 sequence) • HEPES Buffer: HEPES 25 mM • NB tubes: Sigma Cat #Z666505 • Amber tubes: USA scientific Inc. Cat. 1620-2707 • 96 well Plate: Dark bottom NB plate—Greiner Cat. 655900
• 1. Add artiCSF±HEPES buffer to plate • 2. Prepare 400 ul HEPES buffer±RB+substrate (camb2.3 and 2.4) in both amber and NB tubes. • 3. Add enzyme to wells • 4. Add HEPES buffer±RB+substrate to wells with multichannel pipette.
The reaction buffer is a part of the enterovirus test kit of the invention. The camb-2 substrate is dissolved in the reaction buffer. The reaction buffer contains different salts to allow the tested enzyme to work at the optimal conditions. The current reaction buffer composition is: HEPES pH 7.5, 300 mM NaCl, 10 mM EDTA, 10 mM EGTA, 10% Glycerol, 1.8M Na2SO4, 0.1% Sodium azide. The amount of salt in the reaction buffer is high and allows optimal enzymatic activity. However, under these conditions, substrate solubility is affected. Thus, the reaction buffer was improved to increase substrate solubility without reducing enzymatic activity of the tested 3C protease.
300 mM NaCl and 10% glycerol was removed from the reaction buffer and several reduced concentrations of Na2SO4 (starting at 0.9M) were tested in order to determine the minimal salt requirements of the assay (Tables 31-34). Experiments were repeated at least three times by two different scientists.
CSF sample was incubated with 50 nM Echo protease and 2× reaction buffer with 0.6M Na2SO4. Also included were 3 blanks and 9 positive control repetitions.
The effect of reduction in substrate (camb2) concentration and increase in measurement time was tested. The experiment was performed at a final substrate (camb2.5) concentrations of 1, 0.5, 0.25 and 0.125 μM and data analysis was made at different time intervals: 1.5-5, 5-12 and 5-22 min (FIGS. 27A-C).
Sodium sulfate generally has an ambivalent effect: it increase 3C protease activity and reduces substrate solubility. Once it was decided that the substrate concentration would be reduced to 0.25 uM and results analyzed at between 5-10 min, the Na2SO4 concentration was optimized. […] 0.6-0.4M Na2SO4 was tested under the new assay conditions.
• Data analysis was performed between 5-10 min. • The assay activity was measured in triplicates by three scientists. The results in Table 51 are the average of the three triplicates.
To examine the effect of substrate dilution in DMSO vs. DDW under the new assay conditions, substrate stock (1 mM in DMSO) was diluted 1:8 in DMSO or in DDW to yield the working stock. The working stocks were further diluted 1:250 in 2× RB for a concentration of 0.5 uM (0.25 uM final in the well).
The assay activity was measured in triplicates by three scientists. The results in Table 52 are the average of the three triplicates.

a-Chymotrypsin Type IV = biological target: T3, a-Chymotrypsin Type IV (Bos taurus, UniProt P00766, DEL14-15/DEL147-148); test: Competition inhibition of chymotrypsin by two substrates; type: biochemical; details: Sub.-1 50 nM, Enzyme 100 pg/ml
T3 construct: purchased
Procedure: • Dilution and reaction Buffer: HEPES 100 mM pH=7.5. • Substrate 1 (Sub.-1) Camb-2.4 (a batch of Camb2 substrate): FRET substrate based on Alexa 532 fluorophore. • Substrate 2 (Sub.-2): Commercially available colorimetric base (420NM) a-Chymotrypsin substrate. Dissolve in 1:1 HEPES/DMSO to 20 mm. additional 1:10 dilution was done in HEPES buffer. • Enzyme—a-Chymotrypsin: Commercially available a-Chymotrypsin Type IV was diluted in HEPES buffer to a stock of 20 ug/ml. Fluorimeter: DMV, Polar-Star Galaxy. Parameters: • Ex. […]. • Temprature RT. • Total reading Time 10 min. Gain 90
• Solution-1: HEPES buffer. • Solution-2: Substrate-1 stock was diluted 1:10 in 1000 ul HEPES to give a 2× solution of 100 nM. • Solution-3, a-d: Substrate-2 stock was serially diluted 1:10 with HEPES and 10 ul of each dilution was added into 40 ul of HEPES. a-400 uM, b-40 uM, c-4 uM, d-400 nM (10× solutions) • Solution-4: Enzyme stock was diluted 1:20 into 300 ul of HEPES to give a 10× solution.
Using a multi-Channel pipette, the above Solutions were added into a non binding blacked bottom 96 wells plat, using columns 1-6 of rows A-C. 30 ul Solution-1 and 50 ul Solution-2 were added to each well. Into rows A-C, 10 ul of Solution-1 was added to columns 1 and 2, 10 ul Solution-3a was added to column 3, 10 ul Solution-3b was added to column 4, 10 ul Solution-3c was added to column 5 and 10 ul Solution-3d was added to column 6. Into rows A-C. 10 ul of Solution-1 was added to columns 1, 10 ul of Solution-4 was added to columns 2-6. Fluorimertic reading was then started.

3C protease (EV assay) = test: Assay optimization - solvent (EV assay, Camb 2); type: biochemical, Enterovirus
Procedure: Various solvents were tested in order to optimize substrate solubility and stability. […] All the solvents tested were prepared at 0-10% concentrations in 2× reaction buffer and the final concentrations tested were 0-5%. […] Camb 2 was added to the final 2× buffer. For 1,2-Propanediol and 1,3-Propanediol, Camb 2 was first dissolved in the solvent at the appropriate concentration. The solvent+camb2 was then added to 3× reaction buffer to make a final 2× reaction buffer+2 uM camb2. All the experiments were performed in the TECAN Polarstar n=1 in triplicates.

T2 sequence (Q9WN78 1550-1732): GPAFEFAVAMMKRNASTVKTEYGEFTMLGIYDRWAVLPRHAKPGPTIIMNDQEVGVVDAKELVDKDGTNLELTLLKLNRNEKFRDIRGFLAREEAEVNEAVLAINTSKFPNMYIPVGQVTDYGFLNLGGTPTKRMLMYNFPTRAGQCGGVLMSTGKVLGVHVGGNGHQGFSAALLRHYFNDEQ
T1 sequence (P03303 1538-1719): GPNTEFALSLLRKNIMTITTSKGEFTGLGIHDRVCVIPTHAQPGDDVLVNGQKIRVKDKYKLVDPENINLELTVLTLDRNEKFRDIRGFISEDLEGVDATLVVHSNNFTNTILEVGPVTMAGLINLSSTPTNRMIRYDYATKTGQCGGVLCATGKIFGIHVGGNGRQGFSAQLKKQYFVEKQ
PSA, sequence (P07288 25-261): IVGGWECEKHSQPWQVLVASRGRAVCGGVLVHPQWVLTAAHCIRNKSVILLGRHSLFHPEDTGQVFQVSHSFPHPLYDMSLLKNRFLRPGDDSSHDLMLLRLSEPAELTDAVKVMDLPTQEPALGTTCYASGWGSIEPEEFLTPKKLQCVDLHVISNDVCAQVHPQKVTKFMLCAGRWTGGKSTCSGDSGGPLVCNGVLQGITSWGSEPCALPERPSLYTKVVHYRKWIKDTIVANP

Compound: Heparin
- inhibition of HRV 3C protease activity [1]: did not inhibit

Compound: CC(C)C[C@H](NC(=O)[C@@H](O)[C@H](N)Cc1ccccc1)C(=O)O [Bestatin]
- inhibition of HRV 3C protease activity [1]: did not inhibit
- effect on the non specific proteolytic activity of the nasal wash specimen [2]: no effect

Compound: O=S(=O)([O-])[O-].[Na+].[Na+] [Na2SO4]
- increase of PSA photolytic activity (PSA): > 103 fold
- Positive control reaction rate, 0.4M Na2SO4, Averages ± SE ([3]; 0.4M Na2SO4, average of all experiments, analysis 5-10 min): 444 ± 75 RFU/min
- enzymatic activity ([3]; 0.4M sodium sulfate, analysis 5-10 min): 444
- Positive control reaction rate, 0.5M Na2SO4, Averages ± SE ([3]; 0.5M Na2SO4, average of all experiments, analysis 5-10 min): 703 ± 56 RFU/min
- enzymatic activity ([3]; 0.5M sodium sulfate, analysis 5-10 min): 700
- Positive control reaction rate, 0.6M Na2SO4, Averages ± SE ([3]; 0.6M Na2SO4, average of all experiments, analysis 5-10 min): 825 ± 31 RFU/min
- Positive control reaction rate, 0.6M Na2SO4 ([3]; 0.6M Na2SO4 final, recombinant Echo protease positive control, 0.25 uM camb2.5 substrate, data analysis 5-10 min, single experiments (EXP)): 679 RFU/min and 918 RFU/min and 921 RFU/min and 739 RFU/min and 770 RFU/min and 862 RFU/min and 890 RFU/min and 824 RFU/min
- enzymatic activity ([3]; 0.6M sodium sulfate, analysis 5-10 min): 825

Compound: CC(C)C[C@H](NC(=O)[C@H]1O[C@@H]1C(=O)O)C(=O)NCCCCN=C(N)N [E-64]
- inhibition of HRV 3C protease activity [1]: no inhibition

Compound: M-Suc-Ala-Ala-Pro-Phe-p-Nitr (MeOSuc-AAPF-pNA; SMILES COC(=O)CCC(=O)N[C@@H](C)C(=O)N[C@@H](C)C(=O)N1CCC[C@H]1C(=O)N[C@@H](Cc1ccccc1)C(=O)Nc1ccc([N+](=O)[O-])cc1) [Sub.-2, Commercially available colorimetric a-Chymotrypsin substrate]
- Inhibition % (a-Chymotrypsin Type IV; Sub.-2 40 nM): 10%
- Rate FU/min (Average) (a-Chymotrypsin Type IV; Sub.-2 40 nM): 18000 FU/min
- Inhibition % (a-Chymotrypsin Type IV; Sub.-2 400 nM): 20%
- Rate FU/min (Average) (a-Chymotrypsin Type IV; Sub.-2 400 nM): 16000 FU/min
- Inhibition % (a-Chymotrypsin Type IV; Sub.-2 4 uM): 40%
- Rate FU/min (Average) (a-Chymotrypsin Type IV; Sub.-2 4 uM): 12000 FU/min
- Inhibition % (a-Chymotrypsin Type IV; Sub.-2 40 uM): 55%
- Rate FU/min (Average) (a-Chymotrypsin Type IV; Sub.-2 40 uM): 9000 FU/min

Compound: O [DDW]
- reaction rate lower compared to DMSO ([3]; substrate diluted with DDW): 25%
- Positive control, Average ([3]; analysis 5-10 min): 789.5 RFU/min
- Positive control ([3]; analysis 5-10 min): 747 ± 68 RFU/min and 832 ± 64 RFU/min

Compound: CC(C)CC(=O)N[C@H](C(=O)N[C@H](C(=O)N[C@@H](CC(C)C)[C@@H](O)CC(=O)N[C@@H](C)C(=O)N[C@@H](CC(C)C)[C@@H](O)CC(=O)O)C(C)C)C(C)C [Pepstatin A] (Isovaleryl-VV[Sta]A[Sta]-OH)
- inhibition of HRV 3C protease activity [1]: did not inhibit
- effect on the non specific proteolytic activity of the nasal wash specimen [2]: no effect

Compound: CC(C)[C@@H]1C(=O)N(S(C)(=O)=O)[C@@H]2CCN(C(=O)/C=C/CN3CCCCC3)[C@H]21.Cl [GW311616A]
- inhibition of HRV 3C protease activity [1]: did not inhibit

Compound: C[S+](C)[O-] [DMSO]
- Reaction rate Average P.C (3C protease (EV assay); DMSO 1% final, Table 41): 1270 RFU/min
- % Loss (3C protease (EV assay); DMSO 2.5% final, Table 41): 7%
- Reaction rate Average P.C (3C protease (EV assay); DMSO 2.5% final, Table 41): 1139.26 RFU/min
- Reaction rate Average P.C (3C protease (EV assay); DMSO 4% final, Table 41): 1288 RFU/min
- effect on reaction rate (3C protease (EV assay); all concentrations tested): no loss in reaction rate
- Positive control, Average ([3]; analysis 5-10 min): 1005 RFU/min
- Positive control ([3]; analysis 5-10 min): 1023 ± 36 RFU/min and 987 ± 126 RFU/min

Compound: Ac-DEVD-CHO
- effect on the non specific proteolytic activity of the nasal wash specimen [2]: no effect
